Patent US20260000079A1, “COMPOSITIONS AND METHODS FOR MODULATING IMMUNITY IN PLANTS” (BOYCE THOMPSON INSTITUTE FOR PLANT RESEARCH, INC., priority 2019, published 2026)

How the values were obtained:
[1] = tested on: Arabidopsis wildtype and ibr10, ech2, ech2ibr10, or acx1acx5 mutants; assay type: in vivo, Arabidopsis thaliana; settings: for ascaroside levels in ascr #18-treated acx1acx5 mutant compared with wildtype: roots treated with 1 μM ascr #18
Experimental: FIG. 3A provides a comparison of peroxisomal β-oxidation (pβo) pathways and associated enzymes involved in the conversion of indole-3-butyric acid (IBA)-to-indole acetic acid (IAA) in Arabidopsis and ascaroside biosynthesis in C. elegans. FIG. 3B provides LC-MS analysis of Arabidopsis seedlings treated with 1 μM ascr #18 for 24 hours before sample extraction, comparing ascr #9 production in wildtype and ibr10, ech2, ech2ibr10, or acx1acx5 mutants. FIG. 3C provides a comparison of ascaroside abundances in Arabidopsis wildtype and acx1acx5 roots treated with 1 μM ascr #18. Data are averages±SEM (n=5); n.d.=not detected. FIG. 3D provides RNAseq analysis of ten day-old Arabidopsis wildtype and acx1acx5 mutant roots, plotted as transcript abundance. Data are averages±s.d (n=6).
Arabidopsis thaliana mutant genotypes in the Col-0 background, ibr10-1, ech2-1, ibr10-1ech2-1, and acx1-2acx5-1, were obtained from Rice University (Houston, TX) (Strader, et al. (2011) Plant Cell 23:984-999; Adham, et al. (2005) Plant J. 41:859-874).
To test whether ascr #18 is metabolized via pβo in plants, Arabidopsis mutants impaired in key enzymes of this pathway were analyzed (FIG. 3B). […] In contrast, two other putative po genes, ibr10 and ech2, a putative enoyl-CoA hydratases (Strader, et al. (2011) Plant Cell 23:984-999; Adham, et al. (2005) Plant J. 41:859-874; Zolman, et al. (2008) Genetics 180(1): 237-51), are not required for ascr #18 metabolism in Arabidopsis. ACXs participate in the […] step of pβo by introducing α,β-unsaturation in the side-chain (Von Reuss, et al. (2012) J. Am. Chem. Soc. 134:1817-1824; Strader, et al. (2011) Plant Cell 23:984-999). […] These observations indicate that ascr #18 metabolism in plants into shorter-chained ascarosides proceeds via pβo, and that ACX1 and/or ACX5 are strictly required for chain shortening of ascr #10, whereas the first chain-shortening step from ascr #18 to ascr #10 may involve additional acyl-CoA oxidases.

M. incognita J2 larvae [2] = assay: J2 larvae touching roots of pretreated seedlings in PF-127 gel; assay type: in vivo, Meloidogyne incognita; settings: 48 hours pretreatment
Experimental: FIG. 4A provides a schematic of the experimental designs for assessing activation of defense pathways and resistance to nematodes and bacteria. […] Bacterial growth was assayed 3 days post inoculation. Data are averages±s.d. (n=17). […] Arabidopsis seedlings were treated with buffer or the indicated concentrations of ascr #18 for 48 hours before inoculation with approximately 300 freshly hatched M. incognita J2 larvae. The numbers of root galls of infected plants were counted 6 weeks post inoculation. Data are averages±s.d. (n≥15). […] Arabidopsis seedlings were treated with the indicated concentrations of ascr #18 for 48 hours before transfer into 12-well plates containing Pluronic® F-127 gel with ˜200 freshly hatched M. incognita J2 larvae. Larvae touching root tips (FIG. 4D) or the whole area of roots (FIG. 4E) were counted at 6 hours post seedling transfer. Data are average±s.d. (n=12). […] Transcript levels were determined by qRT-PCR and plotted as relative fold-change compared to mock treated plants. Data are averages±s.d (n≥6). *P≤0.05; **P≤0.005; ***P≤0.0005; two-tailed t-test.
FIG. 6A provides a graph of the number of nematodes touching the root tips of Arabidopsis wildtype and acx1acx5 treated with 50 nM ascr #18 or ascr #9 for 48 hours before transfer into 12-well plates containing Pluronic® F-127 gel with ˜200 freshly hatched M. incognita J2 larvae. Larvae touching the terminal part of roots were counted at 6 hours after seedling transfer. Data are average±s.d. (n=12). FIG. 6B provides a schematic of a Petri dish as shown in the plate layout. […] Larvae in the indicated scoring areas were counted after 4 hours. […] FIG. 6D provides the attraction index for different concentrations of ascr #18, ascr #9, or ascr #18/ascr #9 mixtures measured using the layout shown in FIG. 6C. […]
In a second experiment, wildtype and acx1acx5 were treated with ascr #18 for 48 hours prior to moving seedlings to a PF-127 gel containing approximately 200 M. incognita second-stage larvae (J2) (FIG. 4A, 4D, 4E). J2 larvae touching the roots were counted at 6 hours post seedling transfer.

M. incognita J2 larvae [3] = assay: Quantitative chemotaxis population assay (worm attraction assay); assay type: in vivo, Meloidogyne incognita; settings: 6-cm Petri dish, larvae counted after 4 hours
Experimental: FIG. 6A provides a graph of the number of nematodes touching the root tips of Arabidopsis wildtype and acx1acx5 treated with 50 nM ascr #18 or ascr #9 for 48 hours before transfer into 12-well plates containing Pluronic® F-127 gel with ˜200 freshly hatched M. incognita J2 larvae. Larvae touching the terminal part of roots were counted at 6 hours after seedling transfer. Data are average±s.d. (n=12). FIG. 6B provides a schematic of a Petri dish as shown in the plate layout. For FIG. 6C, the indicated concentrations of ascr #18, ascr #9, or ascr #18/ascr #9 mixtures were placed on one side with mock solutions on the other side of the 6-cm Petri dish. Subsequently, approximately 100 freshly hatched M. incognita J2 larvae were placed in the center of the plate. Larvae in the indicated scoring areas were counted after 4 hours. Data are averages±s.d. (n=12), **P≤0.003; two-tailed t-test. FIG. 6D provides the attraction index for different concentrations of ascr #18, ascr #9, or ascr #18/ascr #9 mixtures measured using the layout shown in FIG. 6C. Data are averages±SEM (n=12), **P≤0.002; two-tailed t-test.
Ascarosides were dissolved in ethanol to prepare millimolar stock solutions. […]
Chemotaxis plates were prepared by pouring 8 mL of 2% bacto-agar (BD Biosciences) into 6-cm Petri dishes. […] Worms that remained in the center 0.5-cm-wide strip were not counted. […]

SMILES	metabolism of ascr #18 into shorter-chained ascarosides ([1]; acx1acx5 mutant, 1 μM ascr #18, 24 hours)	requirement of ibr10 and ech2 for ascr #18 metabolism ([1]; ibr10, ech2 mutants, 1 μM ascr #18, 24 hours)	ascaroside levels in ascr #18-treated acx1acx5 mutant compared with wildtype [1]	effect on M. incognita behavior (J2 larvae touching roots) (M. incognita J2 larvae [2]; wildtype or mutant, 1 μM)	numbers of J2 larvae touching the root tips or whole root area (M. incognita J2 larvae [2]; wildtype, 50 nM, counted 6 hours post transfer)	chemotaxis behavior of M. incognita J2 larvae (attraction index) (M. incognita J2 larvae [3])	effect on infection (J2 larvae touching root tips) (M. incognita J2 larvae [2]; wildtype or acx1acx5, 50 nM)
CC1O[C@@H](O[C@@H](C)CCCCCCCCC(=O)O)C(O)C[C@H]1O (stereo in doubt) [ascr #18, (10R)-(3′R,5′R-dihydroxy-6′S-methyl-(2H)-tetrahydropyran-2-yloxy)-undecanoic acid]	dramatically reduced	not required	elevated levels	did not significantly affect	significantly reduced	no significant effect	–
C[C@H](CCC(=O)O)O[C@@H]1O[C@@H](C)[C@H](O)C[C@H]1O [ascr #9]	–	–	not detected	–	–	no significant effect	did not significantly reduce infection
